Assay results taken from patent publication US20260317344A1, “EGFR INHIBITORS FOR TREATING DISEASE” (BLOSSOMHILL THERAPEUTICS, INC., priority 2023, published 2026).

Columns and labels:
Format in all cases: cell-based
[1] = test system: NCI-H1975 cells; assay: 5-Day CellTiter Glo (CTG) cell proliferation assay, NCI-H1975; settings: Homo sapiens; NCI-H1975 cells (L858R/T790M EGFR), 5-day CTG proliferation, 120 hours; read-out: H1975 IC50
Procedure: (§1) 5-Day CellTiter Glo (CTG) Cell Proliferation Assays (PC9, H1975, H827)
(§2) Cell proliferation assays were carried out in NSCLC cells with EGFR activation mutations. Both PC-9 cells and HCC827 cells (purchased from DSMZ) carry a Glu746-Ala750 deletion (d746-750) mutation in exon 19 of the EGFR gene and NCI-H1975 cells carry both L858R activation mutation and T790M gatekeeper mutation in the EGFR gene. One thousand PC-9, NCI-H1975 or HCC827 cells/100 μL per well were seeded in 96-well black plate with transparent bottom and then treated with indicated compounds in a 9-dose dilution series dispensed using TECAN d300e liquid dispenser. Cells were incubated with compounds for 120 hours at 37° C. and 5% CO2. Cell proliferation was measured using CellTiter-Glo 2.0 luciferase-based ATP detection assay (Promega, Madison, WI) at […] per well following the manufacturer's protocol. Plates were then read on a TECAN Sparks multimode microplate reader. Data was analyzed using GraphPad Prism 9 (GraphPad Software, San Diego, CA) to obtain IC50 values.

[2] = test system: HCC827 cells; assay: 5-Day CellTiter Glo (CTG) cell proliferation assay, HCC827; settings: Homo sapiens; HCC827 cells (d746-750 EGFR), 5-day CTG proliferation, 120 hours; read-out: HCC827 IC50
Procedure: as §1, §2

[3] = test system: PC-9 cells; assay: 5-Day CellTiter Glo (CTG) cell proliferation assay, PC-9; settings: Homo sapiens; PC-9 cells (d746-750 EGFR), 5-day CTG proliferation, 120 hours; read-out: PC-9 IC50
Procedure: as §1, §2

| Structure (SMILES) | IC50 [1] [nM] | IC50 [2] [nM] | IC50 [3] [nM] |
| --- | --- | --- | --- |
| CCOc1nn([C@@H](C)CO)c2c1/C=C/c1n[nH]c3c(O)nc(cc13)-c1c(C)nn(C)c1O[C@@H](C)CN(C)C2 [Ex. 99, (10S,17E)-16-ethoxy-14-[(2S)-1-hydroxypropan-2-yl]-6,8,10,12-tetramethyl-2,10,11,12,13,14-hexahydro-8H-5,3-(azenometheno)tripyrazolo[3,4-f:3′,4′-j:4″,3″-n][1,4]oxazacyclopentadecin-20-ol] | 338 | 38.1 | 351 |
| Cc1nn(C)c2c1-c1cc3c(n[nH]c3c(C)n1)/C=C/c1cnn([C@@H](C)CO)c1CN(C1CC1)[C@H](C)CO2 [Ex. 128, (2S)-2-[(11R,17E)-12-cyclopropyl-6,8,11,20-tetramethyl-2,8,10,11,12,13-hexahydro-14H-5,3-(azenometheno)tripyrazolo[3,4-f:3′,4′-j:4″,3″-n][1,4]oxazacyclopentadecin-14-yl]propan-1-ol] | 56.8 | 3.32 | 17 |
| CCOc1nn([C@@H](C)CO)c2c1/C=C/c1n[nH]c3cnc(cc13)-c1c(COC)nn(C)c1O[C@@H](C)CN(C)C2 [Ex. 130, (2S)-2-[(10S,17E)-16-ethoxy-6-(methoxymethyl)-8,10,12-trimethyl-2,8,10,11,12,13-hexahydro-14H-5,3-(azenometheno)tripyrazolo[3,4-f:3′,4′-j:4″,3″-n][1,4]oxazacyclopentadecin-14-yl]propan-1-ol] | 176 | 0.75 | 2.32 |
| CCOc1nn(C)c2c1/C=C/c1n[nH]c3c(C)nc(cc13)-c1c(C)nn(C)c1O[C@@H](C)CN(C(C)=O)C2 [Ex. 131, 1-[(10S,17E)-16-ethoxy-6,8,10,14,20-pentamethyl-2,8,10,11,13,14-hexahydro-12H-5,3-(azenometheno)tripyrazolo[3,4-f:3′,4′-j:4″,3″-n][1,4]oxazacyclopentadecin-12-yl]ethan-1-one] | 671 | 60.5 | 353 |
| CCOc1nn([C@@H](C)CO)c2c1/C=C/c1n[nH]c3c(C)nc(cc13)-c1c(C)nn(C)c1O[C@H](C)[C@@H](C)N(C)C2 [Ex. 132a, (2S)-2-[(11R,17E)-16-ethoxy-6,8,10,11,12,20-hexamethyl-2,8,10,11,12,13-hexahydro-14H-5,3-(azenometheno)tripyrazolo[3,4-f:3′,4′-j:4″,3″-n][1,4]oxazacyclopentadecin-14-yl]propan-1-ol] | 0.77 | 0.41 | 1.12 |
| Cc1nn(C)c2c1-c1cc3c(n[nH]c3c(C)n1)/C=C/c1cnn(CCO)c1CN(C1CC1)C[C@H](C)O2 [Ex. 133, 2-[(10S,17E)-12-cyclopropyl-6,8,10,20-tetramethyl-2,8,10,11,12,13-hexahydro-14H-5,3-(azenometheno)tripyrazolo[3,4-f:3′,4′-j:4″,3″-n][1,4]oxazacyclopentadecin-14-yl]ethan-1-ol] | 40.5 | 8.87 | 34.2 |
| CCOc1nn(C)c2c1/C=C/c1n[nH]c3c(C)nc(cc13)-c1c(C)nn(C)c1O[C@@H](C)CN(C(=O)CC)C2 [Ex. 135, 1-[(10S,17E)-16-ethoxy-6,8,10,14,20-pentamethyl-2,8,10,11,13,14-hexahydro-12H-5,3-(azenometheno)tripyrazolo[3,4-f:3′,4′-j:4″,3″-n][1,4]oxazacyclopentadecin-12-yl]propan-1-one] |  | 73.8 | 116 |
| COCc1nn(C)c2c1-c1cc3c(n[nH]c3c(C)n1)/C=C/c1cnn([C@@H](C)CO)c1CN(C1CC1)C[C@H](C)O2 [Ex. 139, (2S)-2-[(10S,17E)-12-cyclopropyl-6-(methoxymethyl)-8,10,20-trimethyl-2,8,10,11,12,13-hexahydro-14H-5,3-(azenometheno)tripyrazolo[3,4-f:3′,4′-j:4″,3″-n][1,4]oxazacyclopentadecin-14-yl]propan-1-ol] | 429 | 0.82 | 4.35 |
| COCc1nn(C)c2c1-c1cc3c(n[nH]c3c(C)n1)/C=C/c1cnn(C)c1CN(C(=O)CCN(C)C)C[C@H](C)O2 [Ex. 143, 3-(dimethylamino)-1-[(10S,17E)-6-(methoxymethyl)-8,10,14,20-tetramethyl-2,8,10,11,13,14-hexahydro-12H-5,3-(azenometheno)tripyrazolo[3,4-f:3′,4′-j:4″,3″-n][1,4]oxazacyclopentadecin-12-yl]propan-1-one] | 519 | 9.09 | 21.6 |
| CCOc1nn([C@@H](C)CO)c2c1/C=C/c1n[nH]c3c(C)nc(cc13)-c1c(C)nn(C)c1O[C@@H](C)CN(CC)C2 [Ex. 145, (2S)-2-[(10S,17E)-16-ethoxy-12-ethyl-6,8,10,20-tetramethyl-2,8,10,11,12,13-hexahydro-14H-5,3-(azenometheno)tripyrazolo[3,4-f:3′,4′-j:4″,3″-n][1,4]oxazacyclopentadecin-14-yl]propan-1-ol] | 0.58 | 0.24 | 0.37 |

Other lines, results leading:

| IC50 [1] [nM] | IC50 [2] [nM] | IC50 [3] [nM] | Structure (SMILES) |
| --- | --- | --- | --- |
| 27.2 | 2.97 | 25.5 | CCOc1nn([C@@H](C)CO)c2c1/C=C/c1n[nH]c3c(OC)nc(cc13)-c1c(C)nn(C)c1O[C@@H](C)CN(C)C2 [Ex. 96, (2S)-2-[(10S,17E)-16-ethoxy-20-methoxy-6,8,10,12-tetramethyl-2,8,10,11,12,13-hexahydro-14H-5,3-(azenometheno)tripyrazolo[3,4-f:3′,4′-j:4″,3″-n][1,4]oxazacyclopentadecin-14-yl]propan-1-ol] |
| 1.92 | 0.37 | 1.26 | Cc1nn(C)c2c1-c1cc3c(n[nH]c3c(C)n1)/C=C/c1cnn([C@@H](C)CO)c1CN(C1CC1)C[C@H](C)O2 [Ex. 127, (2S)-2-[(10S,17E)-12-cyclopropyl-6,8,10,20-tetramethyl-2,8,10,11,12,13-hexahydro-14H-5,3-(azenometheno)tripyrazolo[3,4-f:3′,4′-j:4″,3″-n][1,4]oxazacyclopentadecin-14-yl]propan-1-ol] |
| 0.7 | 0.29 | 0.54 | CCOc1nn([C@@H](C)CO)c2c1/C=C/c1n[nH]c3c(C)nc(cc13)-c1c(C)nn(C)c1O[C@@H](C)[C@@H](C)N(C)C2 [Ex. 132b, (2S)-2-[(11R,17E)-16-ethoxy-6,8,10,11,12,20-hexamethyl-2,8,10,11,12,13-hexahydro-14H-5,3-(azenometheno)tripyrazolo[3,4-f:3′,4′-j:4″,3″-n][1,4]oxazacyclopentadecin-14-yl]propan-1-ol] |
| 266 | 34.4 | 67 | CCOc1nn(C)c2c1/C=C/c1n[nH]c3c(C)nc(cc13)-c1c(C)nn(C)c1O[C@@H](C)CN(C(=O)C1CC1)C2 [Ex. 136, cyclopropyl[(10S,17E)-16-ethoxy-6,8,10,14,20-pentamethyl-2,8,10,11,13,14-hexahydro-12H-5,3-(azenometheno)tripyrazolo[3,4-f:3′,4′-j:4″,3″-n][1,4]oxazacyclopentadecin-12-yl]methanone] |
|  | 90.7 | 113 | CCOc1nn(C)c2c1/C=C/c1n[nH]c3c(C)nc(cc13)-c1c(C)nn(C)c1O[C@@H](C)CN(C(=O)C(C)C)C2 [Ex. 137, 1-[(10S,17E)-16-ethoxy-6,8,10,14,20-pentamethyl-2,8,10,11,13,14-hexahydro-12H-5,3-(azenometheno)tripyrazolo[3,4-f:3′,4′-j:4″,3″-n][1,4]oxazacyclopentadecin-12-yl]-2-methylpropan-1-one] |
|  | 6.1 | 29.9 | COCc1nn(C)c2c1-c1cc3c(n[nH]c3c(C)n1)/C=C/c1cnn([C@@H](C)CO)c1CN(C1CC1)[C@H](C)CO2 [Ex. 140, (2S)-2-[(11R,17E)-12-cyclopropyl-6-(methoxymethyl)-8,11,20-trimethyl-2,8,10,11,12,13-hexahydro-14H-5,3-(azenometheno)tripyrazolo[3,4-f:3′,4′-j:4″,3″-n][1,4]oxazacyclopentadecin-14-yl]propan-1-ol] |
